Results published in publication PMC11992618, “Development of cyclopeptide inhibitors specifically disrupting FXR–coactivator interaction in the intestine as a novel therapeutic strategy for MASH” (Life Metabolism, 2025).

Tests used:
PPARγ = target: T1, PPARγ (Homo sapiens, UniProt P37231); test: PPARγ cell-based reporter assay; conditions: 10 μmol/L; inhibition of agonist-induced receptor activation
T1 sequence (P37231 1-505): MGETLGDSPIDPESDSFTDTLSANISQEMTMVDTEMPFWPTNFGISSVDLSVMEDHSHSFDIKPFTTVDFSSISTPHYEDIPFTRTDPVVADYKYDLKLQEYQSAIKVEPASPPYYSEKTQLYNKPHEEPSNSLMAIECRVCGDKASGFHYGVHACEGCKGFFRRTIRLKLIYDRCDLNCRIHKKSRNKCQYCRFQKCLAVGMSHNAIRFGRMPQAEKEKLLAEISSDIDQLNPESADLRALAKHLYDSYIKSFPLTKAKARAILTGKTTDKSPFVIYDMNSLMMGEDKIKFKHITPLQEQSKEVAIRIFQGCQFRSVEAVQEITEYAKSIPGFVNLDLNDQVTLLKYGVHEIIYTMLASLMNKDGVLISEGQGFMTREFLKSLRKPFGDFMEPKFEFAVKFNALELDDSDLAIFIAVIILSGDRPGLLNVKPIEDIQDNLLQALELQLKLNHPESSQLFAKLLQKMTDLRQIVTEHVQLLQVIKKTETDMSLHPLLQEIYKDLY
From the text: (§1) Inhibition% means inhibition percentage of agonist-induced receptor activation.

[1] = target: T2, human FXR alpha (hFXRα)-LBD / SRC2-3 peptide (Homo sapiens, UniProt Q96RI1); test: AlphaScreen assay, recruitment of coactivator peptide SRC2-3 to His-hFXRα-LBD; type: biochemical
T2 construct: 100 nmol/L 6*His-hFXRα-LBD and 100 nmol/L biotinylated co-factor peptide
T2 sequence (Q96RI1 262-486 limits assumed): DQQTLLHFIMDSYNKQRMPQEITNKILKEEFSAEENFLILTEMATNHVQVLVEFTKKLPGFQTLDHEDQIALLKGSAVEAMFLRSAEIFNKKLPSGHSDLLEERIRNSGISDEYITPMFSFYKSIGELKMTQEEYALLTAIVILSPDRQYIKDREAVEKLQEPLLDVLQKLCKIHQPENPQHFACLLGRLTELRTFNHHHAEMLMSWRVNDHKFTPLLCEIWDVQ
Method: (§2) An AlphaScreen technology-based assay was performed according to the manufacturer’s instructions with a minor revision. Briefly, the experiment was conducted with compounds at the indicated concentrations, 100 nmol/L 6*His-hFXRα-LBD and 100 nmol/L biotinylated co-factor peptide in the buffer containing 50 mmol/L MOPS, 50 μmol/L CHAPS, 50 mmol/L NaF, and 0.1 mg/mL BSA, pH 7.4. The mixture was incubated with 50 μg/mL nickel acceptor beads and 50 μg/mL streptavidin donor beads in a 384-well plate under green light in the dark at room temperature, before conducting fluorescence measurement with excitation at 680 nm and emission at 550 nm on an Envision microplate analyzer (PE 2102-8340, PerkinElmer Life Sciences).

PPARα = target: T3, PPARα (Homo sapiens, UniProt Q07869); test: PPARα cell-based reporter assay; conditions: 10 μmol/L; inhibition of agonist-induced receptor activation
T3 sequence (Q07869 1-468): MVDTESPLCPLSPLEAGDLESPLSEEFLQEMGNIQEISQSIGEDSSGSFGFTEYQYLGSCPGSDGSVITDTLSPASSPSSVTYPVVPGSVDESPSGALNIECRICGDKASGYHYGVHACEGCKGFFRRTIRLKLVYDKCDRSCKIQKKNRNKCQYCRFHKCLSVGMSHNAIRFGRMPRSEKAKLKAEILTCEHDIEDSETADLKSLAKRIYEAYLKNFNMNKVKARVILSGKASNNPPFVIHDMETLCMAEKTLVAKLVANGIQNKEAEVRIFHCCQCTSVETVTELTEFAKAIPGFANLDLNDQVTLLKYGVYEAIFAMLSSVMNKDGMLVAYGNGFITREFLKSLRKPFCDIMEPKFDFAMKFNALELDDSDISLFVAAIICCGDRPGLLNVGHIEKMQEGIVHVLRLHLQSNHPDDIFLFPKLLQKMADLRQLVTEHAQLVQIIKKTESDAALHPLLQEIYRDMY
From the text: as §1

[2] = system: intestinal and hepatic FXR signaling; test: In vivo intestinal FXR antagonism experiment (TCA-induced); parameters: species or system mouse; conditions: mice, oral 20 mg/kg with TCA 400 mg/kg/day, 3 doses
Method: For the in vivo intestinal FXR antagonism experiment, after a 3-day treatment with an antibiotic cocktail (1 mg/mL neomycin, 1 mg/mL streptomycin, and 1 mg/mL bacitracin) in drinking water, 8- to 10-week-old male C57BL/6 J mice were orally administered with vehicle or TCA (400 mg/kg/day), TCA combined with GUDCA (50 mg/kg), or TCA combined with DC646 (20 mg/kg) once a day. The serum, liver, and intestine were collected 2 h after the third dosing.
(§3) The intestine and liver were frozen in liquid nitrogen and stored at −80°C. RNA was extracted, and complementary DNA was synthesized from 1 μg total RNA. RT-qPCR was performed on a Bio-Rad CFX384 Touch detection system (Bio-Rad). The primer sequences for RT-qPCR are shown in Supplementary Table S5. RNA levels were analyzed by 2-^ΔΔCt, normalized to 18S ribosomal RNA and expressed as fold change relative to the control group.

[3] = target: T4, human FXR alpha (hFXRα)-LBD / NcoR2 peptide (Homo sapiens, UniProt Q96RI1); test: AlphaScreen assay, recruitment of corepressor peptide NcoR2 to His-hFXRα-LBD; type: biochemical; conditions: DC646 at 11 μmol/L, Ivermectin 5 μmol/L
T4 construct: 100 nmol/L 6*His-hFXRα-LBD and 100 nmol/L biotinylated co-factor peptide
T4 sequence (Q96RI1 262-486 limits assumed): T2 sequence (Q96RI1 262-486 limits assumed)
Method: as §2

[4] = system: intestinal FXR-ceramide axis and GLP-1; test: HFD-fed mice, ileal FXR signaling, ceramides and serum GLP-1; type: in vivo, mouse; conditions: oral 10 and 30 mg/kg
Method: Mice were fasted for 6 h and gavaged with a single dose of 25 mg/kg sitagliptin, followed by 2 g/kg glucose 45 min later. Blood samples were collected 15 min after glucose administration, and GLP-1 was measured using active GLP-1 kits.
as §3
For ileal lipidomics, samples were homogenized, extracted with chloroform, and prepared for analysis. Separation was achieved using an Acquity UPLC CSH C18 column, and analysis was conducted via liquid chromatography electrospray ionization tandem mass spectrometry (LC-ESI-MS/MS). Mobile phases were comprised with acetonitrile–water and isopropanol/acetonitrile solutions, both containing 10 mmol/L ammonium acetate and 0.1% formic acid.
Supplementary Figure S9 DC646 antagonizes intestinal FXR, thereby reducing ceramide production and inducing GLP-1 production. (a) Relative mRNA expression of ileal FXR signaling. (b) Ileal ceramide levels (the data are normalized and centralized). (c) Relative mRNA expression of ileal ceramide-synthesis related genes. (d) Serum GLP-1 levels. HFD-fed mice were gavaged with vehicle or 10 mg/kg or 30 mg/kg DC646. n = 8 in each group. Data are presented as the mean ± SEM and analyzed by one-way ANOVA with Dunnett’s post hoc test. ^*P < 0.05, ^**P < 0.01, and ^***P < 0.001, versus HFD + Vehicle group.

With `CC(C)C[C@@H]1NC(=O)[C@@H]2CN(CCO2)c2cccc3c2c(cn3[Si](C(C)C)(C(C)C)C(C)C)C[C@H](NS(=O)(=O)C(F)(F)F)C(=O)OCCCCNC(=O)[C@H](CC(C)C)NC(=O)[C@@H]2CN(CCO2)c2cccc3c2c(cn3[Si](C(C)C)(C(C)C)C(C)C)C[C@H](NS(=O)(=O)C(F)(F)F)C(=O)OCCCCNC1=O` [DC646, N,N'-((1^2R,1^4S,16^2R,16^4S,4R,13R,19R,28R)-13,28-diisobutyl-5,12,15,20,27,30-hexaoxo-2^1,17^1-bis(triisopropylsilyl)-2^1H,17^1H-6,21-dioxa-11,14,26,29-tetraaza-1(4,2),16(2,4)-dimorpholina-2,17(4,3)-diindolacyclotriacontaphane-4,19-diyl)bis(1,1,1-trifluoromethanesulfonamide)] the inhibition at 10 µM (PPARγ) was 14%, the “Agonistic activity (SRC2-3 recruitment, compound alone)” value ([1]; DC646 alone, Fig. 2e) was “no agonistic activity” and the “Disruption of hFXRα-LBD-SRC2-3 interaction induced by Ivermectin” value ([1]; DC646 at 11 μmol/L, Ivermectin 5 μmol/L) was “competitively disrupted”. The IC50 ([1]; IC50, DC646 combined with CDCA, adding order: DC646 combined with CDCA, Fig. 4b) was 12.2 µM, the IC50 ([1]; IC50 in recruiting the SRC2-3 peptide in the presence of CDCA, in the presence of CDCA (50 μmol/L), Fig. 2f) was 8.86 µM and the “Effect on CDCA agonism when adding DC646 before CDCA” value ([1]; adding order: CDCA after DC646) was “completely blunted the agonism of CDCA”. The “Antagonism when adding DC646 after CDCA” value ([1]; adding order: DC646 after CDCA) was “no antagonism”, the inhibition at 10 µM (PPARα) was -1.3% and the “Hepatic FXR signaling” value [2] was “not hepatic FXR signaling”. The “mRNA expression levels of TCA-induced FXR target genes Shp and Fgf15 (intestine)” value [2] was “decreased”, the “Disruption of hFXRα-LBD-NcoR2 interaction induced by Ivermectin” value [3] was “competitively disrupted” and the “Ceramide levels in the ileum” value [4] was “reduced”. For the same molecule, the “Serum GLP-1 levels” value [4] was “markedly increased” and the “FXR signaling in the ileum (mRNA levels of Shp and Fgf15)” value ([4]; dose-dependent) was “repressed”.
